Experimental data from ChEMBL document CHEMBL5154881, “Discovery of First-in-Class TAK1-MKK3 Protein-Protein Interaction (PPI) Inhibitor (R)-STU104 for the Treatment of Ulcerative Colitis through Modulating TNF-α Production” (J Med Chem, 2022).
Active and inactive are the calls of the source. No cut-off for these calls is given here.

Assays:
[1] = Toxicity in C57 mouse assessed as heart damage at 50 to 500 mg/kg, po administered daily for 14 days; format: organism-based; conditions: in vivo, 336 h, dose 50-500 mg/kg, time 14 day
Mus musculus [2] = assay: Antiinflammatory activity against DSS-induced C57BL/6 mouse model of acute ulcerative colitis assessed as inhibition ratio of IL-23 mRNA expression in colon tissue at 3 mg/kg, IG via gavage measured after 7 days by RT-qPCR analysis relative to control; format: functional; set-up: scale not given: the % may be the effect or the level left; conditions: time 7 day
Mus musculus [3] = assay: Antiinflammatory activity against DSS-induced C57BL/6 mouse model of acute ulcerative colitis assessed as inhibition ratio of IL-1beta mRNA expression in colon tissue at 3 mg/kg, IG via gavage measured after 7 days by RT-qPCR analysis relative to control; format: functional; set-up: scale not given: the % may be the effect or the level left; conditions: time 7 day
[4] = Tmax in 12 hr starved C57 mouse at 30 mg/kg, po measured for 0.083 to 24 hrs post-dose by LC-MS-MS analysis; format: ADME, organism-based; conditions: in vivo, time 0.083-24 hrs
[5] = molecular target: T1, Dual specificity mitogen-activated protein kinase kinase 3 (Homo sapiens, UniProt P46734); assay: Binding affinity to CM5 chip immobilized human MKK3 (20 to 347 residues) expressed in Escherichia coli BL21 (DE3) assessed as dissociation constants, KD by surface plasmon resonance analysis
T1 sequence (P46734 whole entry): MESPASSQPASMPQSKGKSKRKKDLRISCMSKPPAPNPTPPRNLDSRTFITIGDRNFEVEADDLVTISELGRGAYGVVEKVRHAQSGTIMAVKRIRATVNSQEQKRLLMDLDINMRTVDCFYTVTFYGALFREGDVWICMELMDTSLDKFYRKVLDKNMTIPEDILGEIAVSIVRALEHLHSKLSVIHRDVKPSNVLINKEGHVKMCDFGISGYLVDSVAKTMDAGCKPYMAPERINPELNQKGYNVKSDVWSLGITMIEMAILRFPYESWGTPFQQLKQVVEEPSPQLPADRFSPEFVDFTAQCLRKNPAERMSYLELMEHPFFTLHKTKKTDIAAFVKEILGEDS

Mus musculus [6] = assay: Anti-ulcerative colitis activity in DSS-induced C57BL/6 mouse ulcerative colitis model assessed as histopathological score recovery ratio at 10 mg/kg, IG via gavage measured after 7 days by H and E staining method relative to control; format: functional; conditions: time 7 day
Mus musculus [7] = assay: Antiinflammatory activity against DSS-induced C57BL/6 mouse model of acute ulcerative colitis assessed as inhibition ratio of IL-6 protein expression at 3 mg/kg, IG via gavage measured after 7 days by ELISA relative to control; format: functional; set-up: scale not given: the % may be the effect or the level left; conditions: time 7 day
[8] = AUC (0 to t) in 12 hr starved C57 mouse at 5 mg/kg, iv measured for 0.083 to 24 hrs post-dose by LC-MS-MS analysis; format: ADME, organism-based; set-up: time lower 0.083 hrs, dose 5 mg/kg, time upper 24 hrs, route iv; conditions: in vivo
Mus musculus [9] = assay: Antiinflammatory activity against DSS-induced C57BL/6 mouse model of acute ulcerative colitis assessed as inhibition ratio of TNF-alpha protein expression at 3 mg/kg, IG via gavage measured after 7 days by ELISA relative to control; format: functional; set-up: scale not given: the % may be the effect or the level left; conditions: time 7 day
Mus musculus [10] = assay: Antiinflammatory activity against DSS-induced C57BL/6 mouse model of acute ulcerative colitis assessed as inhibition ratio of IL-1beta mRNA expression in colon tissue at 10 mg/kg, IG via gavage measured after 7 days by RT-qPCR analysis relative to control; format: functional; set-up: scale not given: the % may be the effect or the level left; conditions: time 7 day
[11] = molecular target: T2, Mitogen-activated protein kinase kinase kinase 7 (Homo sapiens) (UniProt O43318); assay: Inhibition of human TAK1 at 50 uM using casein as substrate incubated for 40 mins in presence of [gamma-33P]-ATP by scintillation counting method relative to control
T2 sequence (whole entry): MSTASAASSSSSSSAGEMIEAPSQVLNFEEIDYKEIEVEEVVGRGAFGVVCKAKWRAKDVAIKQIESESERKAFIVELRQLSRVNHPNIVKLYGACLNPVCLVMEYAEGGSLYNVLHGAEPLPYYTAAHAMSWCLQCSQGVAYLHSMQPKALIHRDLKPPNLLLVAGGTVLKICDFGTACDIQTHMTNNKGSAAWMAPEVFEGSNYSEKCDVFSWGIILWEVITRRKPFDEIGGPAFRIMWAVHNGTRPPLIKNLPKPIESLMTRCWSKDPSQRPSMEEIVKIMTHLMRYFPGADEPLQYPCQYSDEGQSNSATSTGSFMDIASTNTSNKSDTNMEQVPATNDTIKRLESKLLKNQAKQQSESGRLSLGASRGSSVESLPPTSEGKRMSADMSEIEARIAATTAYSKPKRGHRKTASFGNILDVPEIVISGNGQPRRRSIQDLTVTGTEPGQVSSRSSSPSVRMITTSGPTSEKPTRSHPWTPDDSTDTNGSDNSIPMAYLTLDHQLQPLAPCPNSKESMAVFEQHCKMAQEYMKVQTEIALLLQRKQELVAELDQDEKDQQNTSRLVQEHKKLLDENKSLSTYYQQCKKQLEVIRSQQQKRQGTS

Mus musculus [12] = assay: Anti-ulcerative colitis activity in IL-10-/- C57BL/6 mouse model of ulcerative colitis assessed as body weight recovery ratio at 1 mg/kg, IG via gavage for 8 weeks and measured everyday relative to control; format: functional
Mus musculus [13] = assay: Anti-ulcerative colitis activity in IL-10-/- C57BL/6 mouse ulcerative colitis model assessed as animal survival at 3 to 10 mg/kg, IG via gavage for 8 weeks; format: functional, organism-based; conditions: dose 3-10 mg/kg
[14] = AUC (0 to t) in 12 hr starved C57 mouse at 30 mg/kg, po measured for 0.083 to 24 hrs post-dose by LC-MS-MS analysis; format: ADME, organism-based; set-up: time upper 24 hrs, dose 30 mg/kg, time lower 0.083 hrs, route po; conditions: in vivo
P-gp (human) = assay: Efflux ratio of apparent permeability in dog MDCK-MDR1 cells transfected with human P-gp; format: ADME, cell-based, Canis lupus familiaris
Mus musculus [15] = assay: Anti-ulcerative colitis activity in IL-10-/- C57BL/6 mouse model of ulcerative colitis assessed as colon length recovery ratio at 10 mg/kg, IG via gavage for 8 weeks relative to control; format: functional
Mus musculus [16] = assay: Antiinflammatory activity against IL-10-/- C57BL/6 mouse model of ulcerative colitis assessed as inhibition ratio of IL-1beta protein expression at 1 mg/kg, IG via gavage and measured after 8 weeks by ELISA relative to control; format: functional; set-up: scale not given: the % may be the effect or the level left
Mus musculus [17] = assay: Antiinflammatory activity against DSS-induced C57BL/6 mouse model of acute ulcerative colitis assessed as inhibition ratio of TNF-alpha mRNA expression in colon tissue at 10 mg/kg, IG via gavage measured after 7 days by RT-qPCR analysis relative to control; format: functional; set-up: scale not given: the % may be the effect or the level left; conditions: time 7 day
Mus musculus [18] = assay: Antiinflammatory activity against IL-10-/- C57BL/6 mouse model of ulcerative colitis assessed as inhibition ratio of IL-23 protein expression at 10 mg/kg, IG via gavage and measured after 8 weeks by ELISA relative to control; format: functional; set-up: scale not given: the % may be the effect or the level left
Mus musculus [19] = assay: Inhibition of MKK3-p38 MAPK-elF4E signaling pathway in C57BL/6 mouse model of acute ulcerative colitis assessed as decrease in DSS-induced Mnk1 phosphorylation in colon tissue administered intragastrically via gavage measured after 7 days by Western blot analysis; conditions: dose 1-50 mg/kg, time 7.0 day, DDE = dose-dependent effect
[20] = Half life in 12 hr starved C57 mouse at 5 mg/kg, iv measured for 0.083 to 24 hrs post-dose by LC-MS-MS analysis; format: ADME, organism-based; conditions: in vivo, time 0.083-24 hrs

COc1ccc([C@H]2CC(=O)c3cc(OC)cc(OC)c32)cc1
Activity [1]: Non-Toxic
Activity (Mus musculus [2]): 89.9%
Activity (Mus musculus [3]): 87.2%
Tmax [4]: 4.98 min
Kd [5]: 71 nM
Activity (Mus musculus [6]): 70%
Activity (Mus musculus [7]): 53.5%
AUC(0-t) [8]: 7250 ng·h/mL
Activity (Mus musculus [9]): 55.9%
Activity (Mus musculus [10]): 95.6%
inhibition [11]: < 10%
Activity (Mus musculus [12]): 13.6%
Activity (Mus musculus [13]): Active
AUC(0-t) [14]: 9900 ng·h/mL
efflux ratio (P-gp (human)): 0.33
Activity (Mus musculus [15]): 41.2%
Activity (Mus musculus [16]): 40.1%
Activity (Mus musculus [17]): 78.5%
Activity (Mus musculus [18]): 64.4%
inhibition (Mus musculus [19]): Dde
half-life [20]: 557 min
